From patent US8748452B2, “Indolizine derivative and use thereof for medical purposes” (Kissei Pharmaceutical Co., Ltd., priority 2009, dated 2014) come the findings set out here.

Assay [1] has as its target T1, Xanthine oxidase (from bovine milk, Sigma) (Bos taurus, UniProt P80457).
T1 construct: Xanthine oxidase (from bovine milk, Sigma); purchased Sigma; host or cells: bovine milk
The assay can be described thus: Xanthine oxidase inhibitory activity. It counts as biochemical. Conditions: xanthine oxidase from bovine milk 0.02 units/mL, xanthine 200 μM, 10 minutes at room temperature, absorbance at 290 nm. How it is done:
(1) Preparation of test compounds
Test compounds were dissolved in DMSO (Wako pure chemical) at 40 mM concentration and then diluted to intended concentrations with phosphate-buffered saline (PBS).
(2) Method for measurement
Xanthine oxidase (from bovine milk, Sigma) was prepared with phosphate-buffered saline (PBS) at 0.02 units/mL, and then the solution was added to 96 well plates at 50 μL/well. In addition, test compounds diluted with PBS were added at 50 μL/well. Xanthine (Wako pure chemical) at 200 μM prepared with PBS was added at 100 μL/well, and the mixture was reacted for 10 minutes at room temperature. Absorbance at 290 nm was measured using a microplate reader SpectraMax Plus 384 (Molecular device). The absorbance under a condition without xanthine is 0%, and control without test compounds is 100%. Fifty % inhibitory concentration (IC50) of test compounds was calculated (Table 17). Ex. No. in the table indicates Example number.

The next assay addresses T2, human URAT1 (Homo sapiens, UniProt Q96S37).
T2 construct: expressed in transfected cells; host or cells: COS7 cells (RIKEN CELL BANK RCB0539), transient, pcDNA3.1
T2 sequence (Q96S37 1-553): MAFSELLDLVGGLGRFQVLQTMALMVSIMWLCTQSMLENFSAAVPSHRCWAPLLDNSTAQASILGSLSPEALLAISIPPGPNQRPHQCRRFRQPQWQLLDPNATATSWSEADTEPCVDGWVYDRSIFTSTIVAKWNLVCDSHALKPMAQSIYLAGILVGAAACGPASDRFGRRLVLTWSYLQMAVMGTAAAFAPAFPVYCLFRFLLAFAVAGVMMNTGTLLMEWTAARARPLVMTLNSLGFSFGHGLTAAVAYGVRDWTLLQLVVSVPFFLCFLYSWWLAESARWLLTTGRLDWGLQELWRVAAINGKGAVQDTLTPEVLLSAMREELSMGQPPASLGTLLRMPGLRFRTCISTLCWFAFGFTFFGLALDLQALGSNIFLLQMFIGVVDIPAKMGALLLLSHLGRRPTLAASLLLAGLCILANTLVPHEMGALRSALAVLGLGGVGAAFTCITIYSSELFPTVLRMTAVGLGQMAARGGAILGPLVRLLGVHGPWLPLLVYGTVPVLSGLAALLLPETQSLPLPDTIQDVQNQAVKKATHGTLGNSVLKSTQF
The assay can be described thus: Inhibitory activity of uric acid transport with human URAT1 expressing cells. It counts as cell-based. Conditions: COS-7; concentration of 10 μM; 14C-labeled uric acid 20 μM, 5 minutes uptake, COS7 cells transiently expressing human URAT1. How it is done:
(1) Preparation of transiently human URAT1 expressing cells
Full length human URAT1 cDNA (NCBI Accession No. NM_144585) was subcloned into expression vector, pcDNA3.1 (Invitrogen). Human URAT1 expression vector was transfected into COS7 cells (RIKEN CELL BANK RCB0539) using Lipofectamine 2000 (Invitrogen). COS7 cells were seeded in collagen-coated 24 well plates (Beckton Dickinson) at 3×10^5 cells / well and cultured in D-MEM culture medium (Invitrogen) containing 10% fetal bovine serum (Sanko Junyaku) for 2 hours at 37° C. under the condition of 5% CO2. For 1 well, 2 μL of Lipofectamine 2000 was diluted in 50 μL of OPTI-MEM (Invitrogen) and allowed to stand at room temperature for 7 minutes (hereinafter referred to as Lipo2000-OPTI). For 1 well, 0.8 μg of human URAT1 expression vector was diluted in 50 μL of OPTI-MEM (Invitrogen) and combined gently with Lipo2000-OPTI. After standing at room temperature for 25 minutes, the mixture was added to COS7 cells at 100 μL/well. Furthermore, COS7 cells were cultured for 2 days at 37° C. under the condition of 5% CO2 and used for measuring inhibitory activity on the uptake.
(2) Preparation of test compounds
Test compounds were dissolved in DMSO (Wako pure chemical) at 10 mM concentration and then diluted to 2 times higher concentration than intended with pre-treatment buffer (125 mM sodium gluconate, 4.8 mM potassium gluconate, 1.2 mM potassium dihydrogen phosphate, 1.2 mM magnesium sulfate, 1.3 mM calcium gluconate, 5.6 mM glucose, 25 mM Hepes, pH 7.4). Pre-treatment buffer without test compounds was used for control. In addition, an equal volume of pre-treatment buffer containing ^14C-labeled uric acid (American Radiolabeled Chemicals, Inc.) was added to test compounds and control, and finally assay buffer including 20 μM uric acid was prepared.
(3) Method for measurement
All tests were performed on hot-plate at 37° C. Pre-treatment buffer and assay buffer were incubated at 37° C. and then used for assays. Medium was removed from plates, and 700 μL of pre-treatment buffer was added, and the cells were pre-incubated for 10 minutes. After repeating the same step, pre-treatment buffer was removed, and assay buffer was added at 400 μL/well. The uptake reaction was carried out for 5 minutes. After terminating the reaction, assay buffer was rapidly removed, and the cells were washed twice with addition of ice-cold pre-treatment buffer at 1.2 mL/well. Then, the cells were lysed by addition of 0.2 mol/L sodium hydroxide at 300 μL/well. The lysed solutions were transferred into Picoplate (PerkinElmer), and Microscinti 40 (PerkinElmer) was added at 600 μL/well. After mixing, the radioactivity was counted in a liquid scintillation counter (PerkinElmer). The radioactivity in COS7 cells not transfected with URAT1 expression vector was also counted under the same condition as control. As a result, it was shown that compounds of Examples 5, 8, 17, 18, 22, 40 and 55 have inhibitory activity of 50% or higher in a concentration of 10 μM.

The next assay concerns male CD (SD) IGS rats. The assay can be described thus: Serum hypouricemic effect. It counts as in vivo. Conditions: Rattus norvegicus; 1 mg/kg oral gavage, overnight fasted male rats, serum at 2 hours after administration; read-out: percent decrease in uric acid. The protocol:
Test compounds at 1 mg/kg suspended in 0.5% methylcellulose solution were administered by oral gavage administration to overnight fasted male CD (SD) IGS rats (5-week-old, Charls River Japan). At 2 hours after administration, blood was collected under ether anesthesia from abdominal aorta, and serum was separated according to general method. Serum uric acid values were determined by use of uric acid measurement kit (Uric acid C-Test Wako: Wako pure chemical), and percent decrease in uric acid was calculated according to the formula described below. As a result, it was shown that compounds of Examples 2, 7, 10, 22, 23, 25, 37, 49, 50 and 58 have over 60% percent decrease in uric acid.
Percent decrease in uric acid (%)=(Serum uric acid values in control animals−Serum uric acid values in animals administered test compounds)×100/Serum uric acid values in control animals

T1 sequence (P80457 whole entry): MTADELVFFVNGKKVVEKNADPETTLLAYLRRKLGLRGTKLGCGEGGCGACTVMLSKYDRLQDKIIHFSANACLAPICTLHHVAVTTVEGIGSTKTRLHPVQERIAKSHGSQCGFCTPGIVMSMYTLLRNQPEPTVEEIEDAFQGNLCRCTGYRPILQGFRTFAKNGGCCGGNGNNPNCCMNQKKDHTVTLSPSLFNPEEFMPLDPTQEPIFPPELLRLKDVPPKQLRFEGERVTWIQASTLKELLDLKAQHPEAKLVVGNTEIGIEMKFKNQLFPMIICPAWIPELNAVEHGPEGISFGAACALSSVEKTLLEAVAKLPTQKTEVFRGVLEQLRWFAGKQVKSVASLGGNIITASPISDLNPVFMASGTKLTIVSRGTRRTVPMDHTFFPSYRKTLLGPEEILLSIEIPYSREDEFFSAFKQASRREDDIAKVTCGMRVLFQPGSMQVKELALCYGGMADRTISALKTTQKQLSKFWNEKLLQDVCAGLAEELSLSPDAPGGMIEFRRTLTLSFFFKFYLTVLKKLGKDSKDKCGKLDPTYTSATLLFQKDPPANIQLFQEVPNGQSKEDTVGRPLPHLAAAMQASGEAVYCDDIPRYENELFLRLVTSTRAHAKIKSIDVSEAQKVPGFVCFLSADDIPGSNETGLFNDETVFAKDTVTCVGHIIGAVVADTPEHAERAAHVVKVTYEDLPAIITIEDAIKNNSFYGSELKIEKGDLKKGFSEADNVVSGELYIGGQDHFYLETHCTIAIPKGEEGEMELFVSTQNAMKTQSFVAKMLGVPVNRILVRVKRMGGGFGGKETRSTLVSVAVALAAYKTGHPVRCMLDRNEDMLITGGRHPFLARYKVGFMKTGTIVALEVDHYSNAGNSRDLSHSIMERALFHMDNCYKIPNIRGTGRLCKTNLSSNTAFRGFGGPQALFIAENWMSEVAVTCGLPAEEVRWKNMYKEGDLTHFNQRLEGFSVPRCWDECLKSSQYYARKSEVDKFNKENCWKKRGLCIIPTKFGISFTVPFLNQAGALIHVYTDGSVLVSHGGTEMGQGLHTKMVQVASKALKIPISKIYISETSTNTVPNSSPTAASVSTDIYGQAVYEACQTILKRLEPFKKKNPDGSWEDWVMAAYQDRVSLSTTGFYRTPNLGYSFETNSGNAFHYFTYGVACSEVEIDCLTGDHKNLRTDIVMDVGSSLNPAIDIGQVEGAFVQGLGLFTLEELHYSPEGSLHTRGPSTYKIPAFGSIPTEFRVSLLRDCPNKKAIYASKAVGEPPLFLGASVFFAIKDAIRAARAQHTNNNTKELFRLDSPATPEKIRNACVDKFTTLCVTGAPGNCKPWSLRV

In general, IC50 refers to the concentration that inhibits the measured activity by half. Higher therefore signals weaker potency. By inhibition is commonly meant the share of the control response that was lost under treatment. For `Cc1ccc2c(C#N)cc(-c3ccc(C(=O)O)cc3)n2c1` [Example 5], the IC50 in assay [1] came to 10 nM. This compound returned an inhibition at 10 µM on human URAT1 of no less than 50%.
`Cc1cc2c(C#N)cc(-c3ccc(C(=O)O)cc3)n2cc1F` [Example 8] showed an IC50 in assay [1] of 6 nM. The compound also yielded an inhibition at 10 µM on human URAT1 of no less than 50%.
On the same counts, the results for `Cc1ccn2c(-c3ccc(C(=O)O)c(O)c3)cc(C#N)c2c1` [Example 18] are 3 nM and no less than 50%.
For `Cc1cc2c(C#N)cc(-c3ccc(C(=O)O)c(O)c3)n2cc1F` [Example 22], in assay [1], the IC50 was 3 nM. Further, the inhibition at 10 µM against human URAT1 was no less than 50%. In addition, the inhibition in vivo at 1 mg/kg in the assay on male CD (SD) IGS rats was greater than 60%.
On to `N#Cc1cc(-c2ccc(C(=O)O)cc2)n2cc(F)cc(F)c12` [Example 40], for which 14 nM corresponded to half-maximal inhibition in assay [1] (IC50). On human URAT1, this compound displayed an inhibition at 10 µM of no less than 50%.
For `Cc1cc2c(C#N)cc(-c3ccc(C(=O)O)c(O)c3)n2cc1Cl` [Example 49], the IC50 in assay [1] was 2 nM. The inhibition in vivo at 1 mg/kg in the assay on male CD (SD) IGS rats was greater than 60%.
Regarding `Cc1ccn2c(-c3ccc(C(=O)O)c(O)c3)cc(C#N)c2c1Cl` [Example 50], the IC50 in assay [1] stood at 2 nM. The inhibition in vivo at 1 mg/kg with male CD (SD) IGS rats was greater than 60%.
In assay [1], `N#Cc1cc(-c2ccc(C(=O)O)c(O)c2)n2cc(F)cc(F)c12` [Example 55] displayed an IC50 of 6 nM. Also, the inhibition at 10 µM against human URAT1 is no less than 50%.
In the case of `COc1ccn2c(-c3ccc(C(=O)O)c(O)c3)cc(C#N)c2c1` [Example 58], the IC50 in assay [1] was found to be 2 nM. In the assay with male CD (SD) IGS rats, the inhibition in vivo at 1 mg/kg is greater than 60%.
